Assay results reported in US20110166119A1 (Glade Organics Private Limited, priority 2008, published 2011).
Where two headings read alike, the source gives them in different places. Blank lines part the entries; values can stand above or below the compound they belong to.

Columns and labels:
[1] = system: Klebsiella pneumoniae (VIM producing); test: Checkerboard MIC, Klebsiella pneumoniae; type: cell-based; conditions: for MIC: Klebsiella pneumoniae, single drug, read-out: MIC when taken individually
Method: (§1) The checkerboard array was performed in order to find the MIC's of selected antibacterial agents against the strains of Pseudomonas aeruginosa, Acinetobacter baumannii, Klebsiella pneumoniae and MRSA (Methicillin Resistant Staphylococcus aureus).
(§2) • 1. A total of 50 μl of Mueller-Hinton broth was distributed into each well of the micro dilution plates. • 2. The first antibiotic (A) of the combination was serially twofold diluted along the Y-axis, while the second antibiotic (B) was diluted along the X-axis. • 3. An inoculum equal to a 0.5 McFarland turbidity standard was prepared from each culture in sterile saline. • 4. Each micro titer well was inoculated with 100 μl of a bacterial inoculum and the plate was loaded on ELISA plate reader (37° C. for 24 hrs). Formula for ΣFIC (Fractional inhibitory concentration): […]
(§3) Where FIC A is the MIC of drug A in the combination/MIC of drug A alone,
(§4) FIC B is the MIC of drug B in the combination/MIC of drug B alone.
(§5) The combination is considered synergistic when the ΣFIC is ≦0.5, indifferent when the ΣFIC is >0.5 to <2, and antagonistic when the ΣFIC is ≧2.

[2] = system: Acinetobacter baumanii; test: Checkerboard MIC, Acinetobacter baumanii; type: cell-based, Acinetobacter baumannii; conditions: for MIC: Acinetobacter baumannii, single drug, read-out: MIC when taken individually
Method: (§6) The synergistic outcome of the combination was recorded as a concave curve.
as §1, §2, §3, §4, §5

[3] = system: Methicillin Resistant Staphylococcus aureus (MRSA); test: Checkerboard MIC, MRSA; type: cell-based; conditions: for MIC: Staphylococcus aureus, MRSA, read-out: MIC when taken individually
Method: as §6, §1, §2, §3, §4, §5

[4] = system: Pseudomonas aeruginosa (PA1 - ESBL producing); test: Checkerboard MIC, Pseudomonas aeruginosa PA1; type: cell-based; conditions: for MIC in combination: Ertapenem + Aztreonam combination, Table 1; for MIC: Pseudomonas aeruginosa, PA1, read-out: MIC when taken individually
Method: as §6, §1, §2, §3, §4, §5

[5] = system: Pseudomonas aeruginosa ATCC 27853; test: Checkerboard MIC, Pseudomonas aeruginosa ATCC 27853; type: cell-based; conditions: for MIC in combination: Meropenem + Aztreonam combination, Table 6; for MIC: Pseudomonas aeruginosa, ATCC27853, read-out: MIC when taken individually
Method: as §1, §2, §3, §4, §5

[6] = Ertapenem 1.22 + Aztreonam 2.44
[7] = Ertapenem 2.44 + Aztreonam 4.88
[8] = Ertapenem 4.88 + Aztreonam 9.76
[9] = Ertapenem 9.76 + Aztreonam 19.53
[10] = Ertapenem + Aztreonam combination, Table 2
[11] = Ertapenem/Aztreonam checkerboard, Table 3
[12] = Ertapenem 0.61 + Aztreonam 312.5
[13] = Ertapenem 1.22 + Aztreonam 156.25
[14] = Ertapenem 2.44 + Aztreonam 78.12
[15] = Ertapenem + Aztreonam combination, Table 3
[16] = Ertapenem 4.88 + Aztreonam 39.06
[17] = Ertapenem 19.53 + Aztreonam 9.76
[18] = Ertapenem + Aztreonam combination, Table 4
[19] = Meropenem 0.0488 + Aztreonam 19.53
[20] = Meropenem 0.097 + Aztreonam 9.76
[21] = Meropenem/Aztreonam checkerboard, Table 5
[22] = Meropenem 0.097 + Aztreonam 19.53
[23] = Meropenem 0.195 + Aztreonam 9.76
[24] = Meropenem + Aztreonam combination, Table 5
[25] = Meropenem/Aztreonam checkerboard, Table 8
[26] = Meropenem 1.22 + Aztreonam 9.76
[27] = Meropenem 2.44 + Aztreonam 4.88
[28] = Meropenem + Aztreonam combination, Table 8
[29] = Meropenem 6.1 + Aztreonam 19.53
[30] = Meropenem 12.2 + Aztreonam 9.76
[31] = Meropenem + Aztreonam combination, Table 7

MIC in combination [1, 10]: 4.88 mg/L
MIC ([1]; Ertapenem/Aztreonam checkerboard, Table 2): 1.22 mg/L
MIC [2, 11]: 9.76 mg/L
MIC in combination [2, 15]: 0.61 mg/L
MIC in combination [3, 18]: 4.88 mg/L
MIC [3]: 9.76 mg/L
MIC in combination [4]: 4.88 mg/L
MIC [4]: 9.76 mg/L
SMILES: C[C@@H](O)[C@H]1C(=O)N2C(C(=O)O)=C(S[C@@H]3CN[C@H](C(=O)Nc4cccc(C(=O)O)c4)C3)[C@H](C)[C@H]12 [Ertapenem]
FIC of Ertapenem (x-co-ordinate) [1, 6]: 0.25
FIC of Ertapenem (x-co-ordinate) [1, 7]: 0.5
FIC of Ertapenem (x-co-ordinate) [1, 8]: (1.0,
FIC of Ertapenem (x-co-ordinate) [1, 9]: (2.0,
FIC of Ertapenem (x-co-ordinate) [2, 12]: (0.0625,
FIC of Ertapenem (x-co-ordinate) [2, 13]: 0.125
FIC of Ertapenem (x-co-ordinate) [2, 14]: 0.25
FIC of Ertapenem (x-co-ordinate) [3, 16]: 0.5
FIC of Ertapenem (x-co-ordinate) [3, 9]: 1
FIC of Ertapenem (x-co-ordinate) [3, 17]: 2
FIC of Ertapenem (x-co-ordinate) [4, 16]: 0.5
FIC of Ertapenem (x-co-ordinate) [4, 9]: 1.0
FIC of Ertapenem (x-co-ordinate) [4, 17]: 2.0

MIC in combination [5]: 4.88 mg/L
MIC [5]: 39.1 mg/L
MIC in combination [1, 10]: 1.22 mg/L
MIC [1, 21]: 1200 mg/L
MIC in combination [1, 24]: 9.76 mg/L
MIC [2, 11]: 10000 mg/L
MIC [2, 25]: 5000 mg/L
MIC in combination [2, 15]: 78.12 mg/L
MIC in combination [2, 28]: 4.88 mg/L
MIC in combination [3, 18]: 9.76 mg/L
MIC in combination [3, 31]: 19.53 mg/L
MIC [3]: 5000 mg/L
MIC when taken individually ([3]; single drug, Ertapenem/Aztreonam checkerboard, Table 4): 5000 mg/L
MIC in combination [4]: 9.76 mg/L
MIC [4]: 39.1 mg/L
SMILES: C[C@H]1[C@H](NC(=O)/C(=N\OC(C)(C)C(=O)O)c2csc(N)n2)C(=O)N1S(=O)(=O)O [Aztreonam]
FIC of Aztreonam (y-co-ordinate) [5, 19]: 0.5
FIC of Aztreonam (y-co-ordinate) [5, 20]: 0.25
FIC of Aztreonam (y-co-ordinate) [1, 6]: 0.00195
FIC of Aztreonam (y-co-ordinate) [1, 7]: 0.0039
FIC of Aztreonam (y-co-ordinate) [1, 8]: 0.0078)
FIC of Aztreonam (y-co-ordinate) [1, 9]: 0.016)
FIC of Aztreonam (y-coordinate) [1, 22]: 0.016
FIC of Aztreonam (y-coordinate) [1, 23]: 0.078
FIC of Aztreonam (y-co-ordinate) [2, 12]: 0.0313)
FIC of Aztreonam (y-co-ordinate) [2, 13]: 0.0156
FIC of Aztreonam (y-co-ordinate) [2, 14]: 0.0078
FIC of Aztreonam (y-co-ordinate) [2, 26]: 0.0039
FIC of Aztreonam (y-co-ordinate) [2, 27]: 0.00195
FIC of Aztreonam (y-co-ordinate) [3, 16]: 0.0078
FIC of Aztreonam (y-co-ordinate) [3, 9]: 0.0039
FIC of Aztreonam (y-co-ordinate) [3, 17]: 0.001952
FIC of Aztreonam (y-co-ordinate) [3, 29]: 0.039
FIC of Aztreonam (y-co-ordinate) [3, 30]: 0.001952
FIC of Aztreonam (y-co-ordinate) [4, 16]: 1.0
FIC of Aztreonam (y-co-ordinate) [4, 9]: 0.5
FIC of Aztreonam (y-co-ordinate) [4, 17]: 0.249

MIC in combination [5]: 0.0488 mg/L
MIC [5]: 0.195 mg/L
MIC [1, 21]: 0.781 mg/L
MIC in combination [1, 24]: 0.097 mg/L
MIC [2, 25]: 19.5 mg/L
MIC in combination [2, 28]: 1.22 mg/L
MIC in combination [3, 31]: 6.1 mg/L
MIC [3]: 12.2 mg/L
SMILES: C[C@@H](O)[C@H]1C(=O)N2C(C(=O)O)=C(S[C@@H]3CN[C@H](C(=O)N(C)C)C3)[C@H](C)[C@H]12 [Meropenem]
FIC of Meropenem (x-co-ordinate) [5, 19]: 0.25
FIC of Meropenem (x-co-ordinate) [5, 20]: 0.497
FIC of Meropenem (x-co-ordinate) ([5]; Meropenem 0.195 + Aztreonam 4.88): 1.0
FIC of Meropenem (x-co-ordinate) [1, 22]: 0.124
FIC of Meropenem (x-co-ordinate) [1, 23]: 0.2496
FIC of Meropenem (x-co-ordinate) [2, 26]: 0.0625
FIC of Meropenem (x-co-ordinate) [2, 27]: 0.125
FIC of Meropenem (x-co-ordinate) [3, 29]: 0.5
FIC of Meropenem (x-co-ordinate) [3, 30]: 1
